How the values were obtained:
ATDC5 micromass = test: IL-1β induced extracellular matrix degradation of ATDC5 micromass: gene expression; format: cell-based, mouse
Experimental: To mimic this route of cartilage degradation in vitro, 10 μl ATDC5 micromasses were seeded and differentiated in the presence of 1 μM BI1347 or DMSO for 11 days to allow for sufficient ECM deposition. Cells were then serum starved for 24 hours in differentiation media containing 1% FBS before treatment with 1 μM BI1347 or DMSO for 1 hour and subsequent induction of ECM degradation by co-treatment with 10 ng/ml IL-1β (PeproTech) for 48 hours. Compound only conditions were used as a negative control and additional micromasses were differentiated in the presence of 1 μM BI1347 for the entire culture period to observe whether pre-treatment of ATDC5 with BI1347 alters cellular responses to IL-1B. On day 14 micromasses were stained with alcian blue and leached as previous and RNA extracted for gene expression analysis as above.

[1] = tested on: ihMSC (TERT immortalised human mesenchymal stromal cell line); test: ihMSC micromasses in chondrogenesis and IL1β OA disease degradation model; format: cell-based; settings: 100 nM
Experimental: Additional experiments were carried out on primary chondrocytes (equine, canine and human) and ihMSC (TERT immortalised human mesenchymal stromal cell line) to investigate whether CDK8i protects from IL-1β induced degradation when added throughout the entirety of differentiation/IL-1β treatment. Briefly, ihMSCs were seeded at a density of 5×10^4 cells per 10 μl micromass and differentiated in ihMSC chondrogenic media (1% FBS, 1% Ab/Am, 1× Insulin-Transferrin-Selenium premix, 10 μM Y-27632, 100 nM dexamethasone, 50 μg/ml ascorbic acid, 20 ng/ml TGF-β3 (Peprotech)). Primary chondrocytes were seeded at 2.7×10^5 cells per 10 μl micromass and differentiated in primary chondrocyte differentiation media. All micromasses were differentiated for 12 days in the presence of 100 nM […] or DMSO. Some micromasses were processed for gene expression analysis/alcian blue staining on day 12, whilst others were treated with IL-β media (1% FBS, 1% Ab/Am, 10 ng/ml IL-1B) and CDK8i for 48-hours before processing for alcian blue staining/gene expression analysis on day 14 as previously described.

[2] = tested on: zebrafish embryo endochondral jaw bone; test: Zebrafish jaw analysis of hypertrophic zones; format: in vivo, zebrafish (Danio rerio); settings: 50 nM or 100 nM, 24 hpf to 5 dpf, vs DMSO
Experimental: Several bones during zebrafish (Danio rerio) craniofacial development exist via endochondral ossification, thus the developing zebrafish embryo is a useful in vivo model of chondrocyte hypertrophy (Dietrich et al. (2021) “Skeletal Biology and Disease Modeling in Zebrafish”. J Bone Miner Res, 36:436-458. https://doi.org/10.1002/jbmr.4256). Embryos at 24 hpf were cultured in the E3 water ([…], 0.17 mM KCl, 0.33 mM CaCl2, 0.33 mM MgSO4, and 0.1% Methylene Blue) in the presence of 50 nM or 100 nM MSC2530818 or DMSO control up until 5 dpf, with E3 water refreshed every 2 days. At 5 dpf embryos were fixed in 4% PFA overnight at 4° C. before washing in 70% EtOH for 10 mins followed by 50% EtOH for a further 10 mins. Specimens were then incubated in alcian blue stain (0.1% Alcian blue, 70% EtOH, 30% Glacial acetic acid) overnight with gentle agitation before 30 min washes in 100, 80, 70% EtOH and 0.1% PBST. Specimens were digested for 1 hour in enzyme solution (10 mg/ml trypsin in 30% saturated sodium tetraborate) followed by a 1-hour incubation in bleaching solution (3% hydrogen peroxide, 1% potassium hydroxide). Specimens were washed in 0.1% PBST and stored in 70% glycerol at 4° C. until imaging. Jaw sections were dissected and the number of enlarged cells within the entopterygoid/ceratohyal region were counted.

[3] = 1 μM days 12-14, with 10 ng/ml IL-1β
[4] = 1 μM throughout differentiation, 10 ng/ml IL-1β days 12-14

Row | SMILES | ACAN expression, increase vs DMSO (ATDC5 micromass; [3]) | COL2A1 expression, increase vs DMSO (ATDC5 micromass; [3]) | COL2A1 expression, increase vs DMSO (ATDC5 micromass; 1 μM days 12-14, without IL-1β) | ACAN expression, increase vs DMSO (ATDC5 micromass; 1 μM days 12-14, without IL-1β (N.S)) | ACAN expression, increase vs DMSO (ATDC5 micromass; [4]) | COL2A1 expression, increase vs DMSO (ATDC5 micromass; [4]) | ADAMTS5 gene expression, reduction vs DMSO [1] | ACAN gene expression, increase vs DMSO ([1]; OA disease model (+IL1β)) | MATN3 gene expression, increase vs DMSO ([1]; OA disease model (+IL1β)) | glycosaminoglycan (GAG; alcian blue stain) intensity vs DMSO ([1]; both conditions (−IL1β and +IL1β)) | ACAN gene expression, increase vs DMSO ([1]; chondrogenic (−IL1β)) | MATN3 gene expression, increase vs DMSO ([1]; chondrogenic (−IL1β)) | size of the hypertrophic region and number of enlarged/hypertrophic cells [2]
1 | CN(C)C(=O)Cn1cc(-c2ccc(-c3cncc4ccccc34)cc2)cn1 [BI1347] | 3 fold | 1.5 fold | 1.7 fold | 1.2 fold | 20 fold | 3 fold |  |  |  |  |  |  | 
2 | Cc1n[nH]c2ncc(C(=O)N3CCC[C@H]3c3ccc(Cl)cc3)cc12 [MSC2530818] |  |  |  |  |  |  | 1.3 fold | 1.6 fold | 3 fold | increase | 3 fold | 4 fold | dose dependent reduction

From patent publication US20250312320A1, “METHOD AND TREATMENT FOR OSTEOARTHRITIS AND DISEASES OF CHONDROCYTE HYPERTROPHY” (The Royal Veterinary College, priority 2022, published 2025)
